Earlier results as cited in patent US11285107B2, “Process for manufacturing porous silica particles loaded with at least one bioactive compound adapted for lung, nasal, sublingual, and/or pharyngeal delivery” (Nanologica AB, priority 2017, dated 2022).

| solubility in water | Structure (SMILES) |
| --- | --- |
| > 6000 µg/mL | CCN(CC)CCNC(=O)c1cc(Cl)c(N)cc1OC [metoclopramide] |
| insoluble in water | NCC(=O)Nc1ccc(-n2nc(C(F)(F)F)cc2-c2ccc3c(ccc4ccccc43)c2)cc1 [OSU-03012, 2-amino-N-(4-(5-(phenanthren-2-yl)-3-(trifluoromethyl)-1H-pyrazol-1-yl)phenyl)acetamide] |
